“Also recorded” adds a separate entry of the source.
Key:
Assay type in all cases: cell-based, human
philagrin (FLG) = assay: Real time PCR of philagrin (FLG) in FT-skin model
Description: (§1) 2) The ‘full thickness skin model’ (FT) (Phenion GmbH & Co., Frankfurt am Main, Germany) is a multi-layer human skin model consisting of keratinocytes and fibroblasts stemming from the same donor. After a culture period of five weeks, the ‘full thickness’ was fully developed and comprised epidermis, basal membrane and derma. The model was characterized with respect to the expression of fundamental markers of differentiation at the epidermis level (cytokeratin 10, philagrin, transglutaminase and involucrin), at the derma-epidermis junctions (laminin and collagen IV) and at dermal level (elastin fibronectin). The diameter of the model FT is of 1.3 cm.
(§2) In this study the following genes were employed:
(§3) The technique employs Taqman probes for detecting the fluorescent signal and it is very sensitive, consisting in the amplification and quantification of a specific sequence of nucleic acids. The detection of the PCR product occurs in real time. The quantification of DNA, cDNA or RNA is carried out by determining the cycle in which he PCR product can be detected for the first time, thus not at the moment when the reaction has become saturated. The quantification of the product occurs through the detection of fluorescence measured in each cycle; the strength of the signal is directly proportional to the amount of the amplified product. […]
(§4) Each biological sample is evaluated in triple tests. […]

involucrin (IVL) = assay: Real time PCR of involucrin (IVL) in FT-skin model; details: 8, 24, 48 and 72 hours, repeated application for 3 days
Description: as §1, §2, §3, §4

[1] = tested on: hyaluronate synthetase (HAS1); assay: Real time PCR of hyaluronate synthetase (HAS1) in FT-skin model
Description: as §1, §2, §3, §4

[2] = tested on: GSS (glutatione synthetase); assay: Real time PCR of glutatione synthetase (GSS) in FT-skin model; details: 24 hours, expression values very low and meaningless
Description: as §1, §2, §3, §4

[3] = tested on: GCLC (glutamate-cysteinyl ligase); assay: Real time PCR of glutamate-cysteinyl ligase (GCLC) in FT-skin model; details: 1% Biomass or GABA 1 mm dose, from 8 h
Description: as §1, §2, §3, §4

NCCCC(=O)O [GABA, gamma-aminobutyric acid]
philagrin gene over-expression (philagrin (FLG); 24 hours): evident
philagrin gene over-expression (philagrin (FLG); 72 hours (repeated application for 3 days)): significative increase
involucrin gene modulation (involucrin (IVL)): no significative modulation; also recorded: unmodulated
hyaluronate synthetase (HAS) expression with respect to control sample ([1]; 24 hours, 1% Biomass or GABA 1 mm dose, high standard deviation): increased
hyaluronate synthetase (HAS) expression ([1]; 48 hours, GABA 1 mm dose): increased
GSS gene modulation (RT-PCR) [2]: just as a tendency
GCLC gene expression (RT-PCR) [3]: No gene modulation
